Columns and labels:
[1] = molecular target: T1, GTPase KRas (Homo sapiens, UniProt P01116, G12C); experiment: Inhibition of KRAS G12C mutant (unknown origin) by measuring exchange of bodipy-GDP for GppNHp incubated for 2 hrs
[2] = molecular target: T1, GTPase KRas; experiment: Inhibition of KRAS G12C mutant (unknown origin) incubated for 2 hrs
[3] = Inhibition of KRAS G12C WB mutant (unknown origin) incubated for 2 hrs; design: species or system Homo sapiens

Measured: IC50

T1 sequence (P01116 whole entry G12C): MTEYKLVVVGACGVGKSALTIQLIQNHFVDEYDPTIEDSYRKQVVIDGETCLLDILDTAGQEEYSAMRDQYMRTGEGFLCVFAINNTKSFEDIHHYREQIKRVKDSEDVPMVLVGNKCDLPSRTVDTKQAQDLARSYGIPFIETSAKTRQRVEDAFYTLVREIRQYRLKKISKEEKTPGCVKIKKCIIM

C=C(F)C(=O)N1CC[C@H](n2ncc3c(N4CC(N(C)CC)C4)nc4c(F)c(-c5c(C)c(C)cc6[nH]ncc56)c(Cl)cc4c32)C[C@H]1CC#N
≤ 100 nM: all assays above

C=C(F)C(=O)N1CC[C@H](n2ncc3c(O[C@@H](C)[C@@H]4CCCN4C)nc4c(F)c(-c5nccc6cccc(C#N)c56)c(Cl)cc4c32)C[C@H]1CC#N
≤ 100 nM: all assays above

CC#CC(=O)N1CC[C@H](n2ncc3c(O[C@@H](C)[C@@H]4CCCN4C)nc4c(F)c(-c5cccc6cccc(C#N)c56)c(C)cc4c32)C[C@H]1CC#N
≤ 100 nM: all assays above

CC#CC(=O)N1CC[C@H](n2ncc3c(O[C@@H](C)[C@@H]4CCCN4C)nc4c(F)c(-c5nccc6cccc(C#N)c56)c(Cl)cc4c32)C[C@H]1CC#N
≤ 100 nM: all assays above

COC/C=C/C(=O)N1CC[C@H](n2ncc3c(O[C@@H](C)[C@@H]4CCCN4C)nc4c(F)c(-c5nccc6cccc(C#N)c56)c(Cl)cc4c32)C[C@H]1CC#N
≤ 100 nM: all assays above

COC/C=C/C(=O)N1CC[C@H](n2ncc3c(O[C@@H](C)[C@@H]4CCCN4C)nc4c(F)c(-c5cccc6cccc(C#N)c56)c(Cl)cc4c32)C[C@H]1CC#N
≤ 100 nM: all assays above
